Here are results for 73 compounds from ChEMBL document CHEMBL1149683, “Novel TOPP descriptors in 3D-QSAR analysis of apoptosis inducing 4-aryl-4H-chromenes: comparison versus other 2D- and 3D-descriptors” (2007).

This test concerns HL-60. The test is described as follows: Induction of apoptosis in human HL60 […]. Format: functional.
For `COc1ccc2c(c1)OC(N)=C(C#N)C2c1cc(Br)c(OC)c(OC)c1` (stereo not drawn), the “Log (1/C)” value turned out to be 7.77.

Regarding `COc1ccc2c(c1)OC(N)=C(C#N)C2c1cccc(Br)c1` (stereo not drawn), the “Log (1/C)” value was found to be 7.28. Turning to `COc1ccc2c(c1)OC(N)=C(C#N)C2c1cccc(Cl)c1` (stereo not drawn), the “Log (1/C)” value was 7.1. For the compound `COc1cc(OC)cc(C2C(C#N)=C(N)Oc3cc(OC)ccc32)c1` (stereo not drawn), the “Log (1/C)” value is 7.82. In the case of `COc1ccc2c(c1)OC(N)=C(C#N)C2c1cccc([N+](=O)[O-])c1` (stereo not drawn), the “Log (1/C)” value was 7.05. Next, `CCNc1ccc2c(c1)OC(N)=C(C#N)C2c1cc(OC)c2c(c1)OCO2` (stereo not drawn): 6.48; `CCNc1cc2c(cc1C)C(c1cc(OC)c3c(c1)OCO3)C(C#N)=C(N)O2` (stereo not drawn): 5.96; `COc1cc(C2C(C#N)=C(N)Oc3cc(Cl)ccc32)cc(Br)c1OC` (stereo not drawn): 6.8. Next, `CCOc1ccc2c(c1)OC(N)=C(C#N)C2c1cc(Br)c(OC)c(OC)c1` (stereo not drawn): 7.19; `COc1cc(C2C(C#N)=C(N)Oc3cc(O)ccc32)cc(Br)c1OC` (stereo not drawn): 6.89. Turning to `COc1cc(C2C(C#N)=C(N)Oc3c2ccc(N)c3C)cc2c1OCO2` (stereo not drawn), the “Log (1/C)” value was determined as 6.51. With `N#CC1=C(N)Oc2c(ccc(N)c2N)C1c1cccc(Br)c1` (stereo not drawn), the “Log (1/C)” value stood at 6.82. Next, `COc1cc(C2C(C#N)=C(N)Oc3c2ccc(O)c3O)cc(Br)c1OC` (stereo not drawn): 5.77. Next, `COc1ccc2c(c1)OC(N)=C(C#N)C2c1ccccc1` (stereo not drawn): 6.44; `COc1ccc2c(c1)OC(N)=C(C#N)C2c1cc(OC)c(OC)c(OC)c1` (stereo not drawn): 7.59.

On to `COc1ccc2c(c1)OC(N)=C(C#N)C2c1cc(OC)c2c(c1)OCO2` (stereo not drawn), for which the “Log (1/C)” value is given as 6.8. Next, `COc1ccc2c(c1)OC(N)=C(C#N)C2c1cccnc1` (stereo not drawn): 6.77; `N#CC1=C(N)Oc2c(ccc(N)c2N)C1c1cccc(C#N)c1` (stereo not drawn): 6.41. For `COc1cc(C2C(C#N)=C(N)Oc3cc4c(cc32)OCO4)cc2c1OCO2` (stereo not drawn), the “Log (1/C)” value is 6.68.

As to `COc1cc(C2C(C#N)=C(N)Oc3c2ccc(C)c3C)cc(Br)c1OC` (stereo not drawn), the “Log (1/C)” value was found to be 7.38. The same measure for `COc1cc(C2C(C#N)=C(N)Oc3c2ccc(N)c3N)cc(Br)c1O` (stereo not drawn): 7.64; for `COc1cc(C2C(C#N)=C(N)Oc3c2ccc(N)c3N)cc(I)c1OC` (stereo not drawn): 5.31.

As for `COc1cc(C2C(C#N)=C(N)Oc3c2ccc(N)c3N)cc(Cl)c1OC` (stereo not drawn), the “Log (1/C)” value stood at 7.62.

For `COc1cccc(C2C(C#N)=C(N)Oc3cc(N(C)C)ccc32)c1OC` (stereo not drawn), the “Log (1/C)” value is listed as 5.99. Regarding `CN(C)c1ccc2c(c1)OC(N)=C(C#N)C2c1cccc(Br)c1` (stereo not drawn), the “Log (1/C)” value was 7.19. For `CN(C)c1ccc2c(c1)OC(N)=C(C#N)C2c1cccc(Cl)c1` (stereo not drawn), the “Log (1/C)” value is given as 6.95. The same measure for `CN(C)c1ccc2c(c1)OC(N)=C(C#N)C2c1cccs1` (stereo not drawn): 6.7; for `CN(C)c1ccc2c(c1)OC(N)=C(C#N)C2c1cccnc1` (stereo not drawn): 7.17. Next, `COc1cc(C2C(C#N)=C(N)Oc3cc(N(C)C)ccc32)cc(Cl)c1OC` (stereo not drawn): 7.74; `COc1ccc(C2C(C#N)=C(N)Oc3cc(N(C)C)ccc32)c(OC)c1OC` (stereo not drawn): 5.5; `CN(C)c1ccc2c(c1)OC(N)=C(C#N)C2c1cccc(F)c1` (stereo not drawn): 7.09. Next, `COc1cc(C2C(C#N)=C(N)Oc3cc(N(C)C)ccc32)cc(I)c1OC` (stereo not drawn): 7.74; `CN(C)c1ccc2c(c1)OC(N)=C(C#N)C2c1ccccn1` (stereo not drawn): 6.33. On to `COc1cc(OC)c(C2C(C#N)=C(N)Oc3cc(N(C)C)ccc32)cc1OC` (stereo not drawn), for which the “Log (1/C)” value is recorded as 5.75. Next, `Cc1cncc(C2C(C#N)=C(N)Oc3cc(N(C)C)ccc32)c1` (stereo not drawn): 7.96. Regarding `Cc1cccc(C2C(C#N)=C(N)Oc3cc(N(C)C)ccc32)n1` (stereo not drawn), the “Log (1/C)” value was 6.61.

For the compound `CN(C)c1ccc2c(c1)OC(N)=C(C#N)C2c1cccc(OC(F)(F)F)c1` (stereo not drawn), the “Log (1/C)” value is 6.35. Next, `COc1ccc(C2C(C#N)=C(N)Oc3cc(N(C)C)ccc32)cc1` (stereo not drawn): 5.8. The same measure for `Cc1cccc(C2C(C#N)=C(N)Oc3cc(N(C)C)ccc32)c1` (stereo not drawn): 6.87; for `CN(C)c1ccc2c(c1)OC(N)=C(C#N)C2c1cc(Br)c2c(c1)OCO2` (stereo not drawn): 6.61; for `CN(C)c1ccc2c(c1)OC(N)=C(C#N)C2c1cc(Cl)cc(Cl)c1` (stereo not drawn): 7.12. Take `COc1ccc(C2C(C#N)=C(N)Oc3cc(N(C)C)ccc32)cc1OC` (stereo not drawn): the “Log (1/C)” value was 6.6.

As to `CCNc1ccc2c(c1)OC(N)=C(C#N)C2c1cccc(Cl)c1` (stereo not drawn), the “Log (1/C)” value is given as 6.92. For `CCNc1ccc2c(c1)OC(N)=C(C#N)C2c1cc(OC)c(OC)c(OC)c1` (stereo not drawn), the “Log (1/C)” value is listed as 7.31. With `CCNc1ccc2c(c1)OC(N)=C(C#N)C2c1cccc(OC)c1` (stereo not drawn), the “Log (1/C)” value turned out to be 6.96. The same measure for `COc1ccc(CC2C(C#N)=C(N)Oc3cc(N(C)C)ccc32)c(Br)c1OC` (stereo not drawn): 5.14. Next, `CCN(CC)c1ccc2c(c1)OC(N)=C(C#N)C2c1cc(OC)c2c(c1)OCO2` (stereo not drawn): 6.32; `COc1cc(C2C(C#N)=C(N)Oc3cc(O)ccc32)cc2c1OCO2` (stereo not drawn): 5.24. Next, `COc1cc(C2C(C#N)=C(N)Oc3cc(Br)ccc32)cc(Br)c1OC` (stereo not drawn): 6.85.

On to `COc1cc(C2C(C#N)=C(N)Oc3c2ccc(N)c3N)cc(Br)c1OC` (stereo not drawn), for which the “Log (1/C)” value came to 7.47. For `COc1cc(OC)cc(C2C(C#N)=C(N)Oc3c2ccc(N)c3N)c1` (stereo not drawn), the “Log (1/C)” value was determined as 7.04. For the compound `CCNc1ccc2c(c1)OC(N)=C(C#N)C2c1cc(Br)c(OC)c(OC)c1` (stereo not drawn), the “Log (1/C)” value is given as 7.85. On to `COc1cccc(C2C(C#N)=C(N)Oc3cc(OC)ccc32)c1` (stereo not drawn), for which the “Log (1/C)” value is reported as 7.28.

Regarding `COc1cc(C2C(C#N)=C(N)Oc3cc(N(C)C)ccc32)cc2c1OCO2` (stereo not drawn), the “Log (1/C)” value amounted to 7.14. Take `COc1cc(C2C(C#N)=C(N)Oc3cc(N)ccc32)cc2c1OCO2` (stereo not drawn): the “Log (1/C)” value was determined as 5.92. Take `CN(C)c1ccc2c(c1)OC(N)=C(C#N)C2c1cccc(O)c1` (stereo not drawn): the “Log (1/C)” value is given as 6.57. As to `CN(C)c1ccc2c(c1)OC(N)=C(C#N)C2c1cc(Br)cs1` (stereo not drawn), the “Log (1/C)” value is 6.82. Take `CN(C)c1ccc2c(c1)OC(N)=C(C#N)C2c1cccc(C#N)c1` (stereo not drawn): the “Log (1/C)” value came out at 7.2. As to `CN(C)c1ccc2c(c1)OC(N)=C(C#N)C2CCc1ccccc1` (stereo not drawn), the “Log (1/C)” value is reported as 6.37. Consider `CN(C)c1ccc2c(c1)OC(N)=C(C#N)C2c1cnc2ccccc2c1` (stereo not drawn), for which the “Log (1/C)” value stood at 5.74. For the compound `N#CC1=C(N)Oc2c(ccc(N)c2N)C1c1cccc([N+](=O)[O-])c1` (stereo not drawn), the “Log (1/C)” value is on record as 6.41. Next, `COc1cc(C2C(C#N)=C(N)Oc3c2ccc(O)c3N)cc(Br)c1OC` (stereo not drawn): 7.21; `COc1cncc(C2C(C#N)=C(N)Oc3cc(OC)ccc32)c1` (stereo not drawn): 7.33; `COc1cc(C2C(C#N)=C(N)Oc3cc(N)ccc32)cc(Br)c1OC` (stereo not drawn): 7.48.

With `COc1cccc(C2C(C#N)=C(N)Oc3cc(N(C)C)ccc32)c1` (stereo not drawn), the “Log (1/C)” value was 7.19. Regarding `COc1cc(C2C(C#N)=C(N)Oc3cc(N(C)C)ccc32)cc(Br)c1O` (stereo not drawn), the “Log (1/C)” value came out at 7.39. The same measure for `CCNc1ccc2c(c1)OC(N)=C(C#N)C2c1cccc([N+](=O)[O-])c1` (stereo not drawn): 6.96; for `CCNc1ccc2c(c1)OC(N)=C(C#N)C2c1cc(OC)cc(OC)c1` (stereo not drawn): 7.26; for `CN(C)c1ccc2c(c1)OC(N)=C(C#N)C2c1ccncc1` (stereo not drawn): 6.42. As for `COc1cc(Br)cc(C2C(C#N)=C(N)Oc3cc(N(C)C)ccc32)c1` (stereo not drawn), the “Log (1/C)” value stood at 7.51. The same measure for `CN(C)c1ccc2c(c1)OC(N)=C(C#N)C2c1cncc(Br)c1` (stereo not drawn): 7.48; for `COc1cc(C2C(C#N)=C(N)Oc3c2ccc(N)c3C)cc(Br)c1OC` (stereo not drawn): 7.59. On to `COc1ccccc1C1C(C#N)=C(N)Oc2cc(N(C)C)ccc21` (stereo not drawn), for which the “Log (1/C)” value is 6.55.
